Experimental data as given in ChEMBL document CHEMBL5120746, “Novel 5-fluorouracil sensitizers for colorectal cancer therapy: Design and synthesis of S1P receptor 2 (S1PR2) antagonists” (Eur J Med Chem, 2022).
Activity calls are given as the source filed them. The rule behind the calls is not given here.

What was measured:
[1] = Initial drug concentration in Sprague-Dawley rat blood at 1 mg/kg, iv measured up to 24 hrs by HPLC-MS/MS analysis; type: ADME, organism-based
[2] = MRT (0 to infinity) in Sprague-Dawley rat plasma at 1 mg/kg, iv measured up to 24 hrs by HPLC-MS/MS analysis; type: ADME, organism-based
SW620/5-FU [3] = experiment: Antitumor activity against human SW620/5-FU cells xenografted in SPF nude mouse assessed as tumor growth inhibition at 7.5 mg/kg, iv QD for 21 days and measured every 4 days in presence of 5-fluorouracil; type: functional; conditions: 504 h, time 21 day, read-out: TGI
SW620/5-FU [4] = experiment: Antitumor activity against human SW620/5-FU cells xenografted in SPF nude mouse assessed as tumor growth inhibition at 30 mg/kg, iv QD for 21 days and measured every 4 days in presence of 5-fluorouracil; type: functional; conditions: 504 h, time 21 day, read-out: TGI
Mus musculus [5] = experiment: Downregulation of DPD expression in tumor of SPF nude mouse xenografted with human SW620/5-FU cells administered intravenously QD for 21 days by Western blot analysis; type: functional; conditions: dose 7.5-15 mg/kg, route iv, time 21.0 day, DDE = dose-dependent effect
Mus musculus [6] = experiment: Downregulation of DPD expression in tumor of SPF nude mouse xenografted with human SW620/5-FU cells at 7.5 to 15 mg/kg, iv QD for 21 days by immunohistochemical analysis; type: functional, organism-based; conditions: dose 7.5-15 mg/kg, time 21.0 day
[7] = Clearance in Sprague-Dawley rat plasma at 1 mg/kg, iv measured up to 24 hrs by HPLC-MS/MS analysis; type: ADME, organism-based; conditions: in vivo
SW620/5-FU [8] = experiment: Antitumor activity against human SW620/5-FU cells xenografted in SPF nude mouse assessed as reduction in tumor weight at 15 mg/kg, iv QD for 21 days; type: functional; set-up: scale not given: the % may be the effect or the level left; conditions: time 21 day
Mus musculus [9] = experiment: Downregulation of S1PR2 expression in tumor SPF nude mouse xenografted with human SW620/5-FU cells at 7.5 to 15 mg/kg, iv QD for 21 days by immunohistochemical analysis; type: functional, organism-based; conditions: dose 7.5-15 mg/kg, time 21.0 day
Mus musculus [10] = experiment: Downregulation of DPD expression in liver of SPF nude mouse xenografted with human SW620/5-FU cells at 15 to 30 mg/kg, iv QD for 21 days in presence of 5-fluorouracil by Western blot analysis; type: functional, organism-based; conditions: dose 15-30 mg/kg, time 21.0 day
[11] = MRT (0 to t) in Sprague-Dawley rat blood at 1 mg/kg, iv measured up to 24 hrs by HPLC-MS/MS analysis; type: ADME, organism-based
SW620/5-FU [12] = experiment: Antitumor activity against human SW620/5-FU cells xenografted in SPF nude mouse assessed as reduction in tumor weight at 7.5 mg/kg, iv QD for 21 days; type: functional; set-up: scale not given: the % may be the effect or the level left; conditions: time 21 day
[13] = Toxicity in SPF nude mouse xenografted with DPD expressed human HCT-116 cells assessed as change in body weight at 15 mg/kg, iv QD for 20 days and measured every 4 days; type: organism-based; conditions: in vivo, 480 h, time 20 day
HCT-116 [14] = experiment: Downregulation of DPD expression in DPD expressed human HCT-116 cells measured after 12 hrs by Western blot analysis; type: functional, cell-based; conditions: dose 5-40 µM, DDE = dose-dependent effect
SW620/5-FU [15] = experiment: Downregulation of DPD expression in human SW620/5-FU cells at 10 uM by Western blot analysis; type: functional, cell-based; conditions: time 4-48 hrs, TDE = time-dependent effect
[16] = MRT (0 to t) in Sprague-Dawley rat plasma at 1 mg/kg, iv measured up to 24 hrs by HPLC-MS/MS analysis; type: ADME, organism-based
NCM460 [17] = experiment: Cytotoxicity against human NCM460 cells assessed as reduction in cell viability at 5 to 80 uM in presence of 5-fluorouracil; type: toxicity, cell-based; conditions: ncm460, 80 µM, dose 5-80 µM
[18] = Clearance in Sprague-Dawley rat blood at 1 mg/kg, iv measured up to 24 hrs by HPLC-MS/MS analysis; type: ADME, organism-based
[19] = Downregulation of S1PR2 mRNA expression level in human SW620/5-FU cells at 20 uM measured after 24 hrs by qRT-PCR analysis; type: functional
[20] = Apparent volume of distribution in Sprague-Dawley rat blood at 1 mg/kg, iv measured up to 24 hrs by HPLC-MS/MS analysis; type: ADME, organism-based; conditions: read-out: Vd(app)
[21] = Half life in Sprague-Dawley rat blood at 1 mg/kg, iv measured up to 24 hrs by HPLC-MS/MS analysis; type: ADME, organism-based
NCM460 [22] = experiment: Cytotoxicity against human NCM460 cells assessed as reduction in cell viability at 5 to 80 uM; type: toxicity, cell-based; conditions: ncm460, 80 µM, dose 5-80 µM
[23] = AUC (0 to t) in Sprague-Dawley rat plasma at 1 mg/kg, iv measured up to 24 hrs by HPLC-MS/MS analysis; type: ADME, organism-based; set-up: dose 1 mg/kg, time < 24 hrs, route iv
[24] = AUC (0 to infinity) in Sprague-Dawley rat blood at 1 mg/kg, iv measured up to 24 hrs by HPLC-MS/MS analysis; type: ADME, organism-based; set-up: dose 1 mg/kg, time < 24 hrs, route iv
[25] = Initial drug concentration in Sprague-Dawley rat plasma at 1 mg/kg, iv measured up to 24 hrs by HPLC-MS/MS analysis; type: ADME, organism-based
HCT-116 [26] = experiment: Reversal of 5-FU resistance against 5-FU resistant DPD expressed human HCT-116 cells assessed as reduction in cell viability incubated for 48 hrs in presence of 5-FU by MTT assay; type: functional, cell-based; conditions: HCT-116, 48 h
SW620/5-FU [27] = experiment: Antitumor activity against human SW620/5-FU cells xenografted in SPF nude mouse assessed as tumor growth inhibition at 7.5 mg/kg, iv QD for 21 days and measured every 4 days; type: functional; conditions: 504 h, time 21 day, read-out: TGI
[28] = target: ATP-dependent translocase ABCB1 (Homo sapiens, UniProt P08183); experiment: Reversal of Pgp-mediated paclitaxel resistance in human LCC6MDR cells assessed as P-gp modulating activity by measuring relative fold at 1 uM; type: cell-based
SW620/5-FU [29] = experiment: Reversal of 5-FU resistance against human SW620/5-FU cells assessed as reduction in cell viability incubated for 48 hrs in presence of 5-FU by MTT assay; type: functional, cell-based
[30] = MRT (0 to infinity) in Sprague-Dawley rat blood at 1 mg/kg, iv measured up to 24 hrs by HPLC-MS/MS analysis; type: ADME, organism-based
[31] = Apparent volume of distribution in Sprague-Dawley rat plasma at 1 mg/kg, iv measured up to 24 hrs by HPLC-MS/MS analysis; type: ADME, organism-based; conditions: in vivo
SW620/5-FU [32] = experiment: Antitumor activity against human SW620/5-FU cells xenografted in SPF nude mouse assessed as reduction in tumor weight at 15 mg/kg, iv QD for 21 days in presence of 5-fluorouracil; type: functional; set-up: scale not given: the % may be the effect or the level left; conditions: time 21 day
SW620/5-FU [33] = experiment: Antitumor activity against human SW620/5-FU cells xenografted in SPF nude mouse assessed as tumor growth inhibition at 15 mg/kg, iv QD for 21 days and measured every 4 days; type: functional; conditions: 504 h, time 21 day, read-out: TGI
[34] = AUC (0 to infinity) in Sprague-Dawley rat plasma at 1 mg/kg, iv measured up to 24 hrs by HPLC-MS/MS analysis; type: ADME, organism-based; set-up: dose 1 mg/kg, time < 24 hrs, route iv
[35] = AUC (0 to t) in Sprague-Dawley rat blood at 1 mg/kg, iv measured up to 24 hrs by HPLC-MS/MS analysis; type: ADME, organism-based; set-up: dose 1 mg/kg, time < 24 hrs, route iv

Sequence of ATP-dependent translocase ABCB1 (P08183 whole entry): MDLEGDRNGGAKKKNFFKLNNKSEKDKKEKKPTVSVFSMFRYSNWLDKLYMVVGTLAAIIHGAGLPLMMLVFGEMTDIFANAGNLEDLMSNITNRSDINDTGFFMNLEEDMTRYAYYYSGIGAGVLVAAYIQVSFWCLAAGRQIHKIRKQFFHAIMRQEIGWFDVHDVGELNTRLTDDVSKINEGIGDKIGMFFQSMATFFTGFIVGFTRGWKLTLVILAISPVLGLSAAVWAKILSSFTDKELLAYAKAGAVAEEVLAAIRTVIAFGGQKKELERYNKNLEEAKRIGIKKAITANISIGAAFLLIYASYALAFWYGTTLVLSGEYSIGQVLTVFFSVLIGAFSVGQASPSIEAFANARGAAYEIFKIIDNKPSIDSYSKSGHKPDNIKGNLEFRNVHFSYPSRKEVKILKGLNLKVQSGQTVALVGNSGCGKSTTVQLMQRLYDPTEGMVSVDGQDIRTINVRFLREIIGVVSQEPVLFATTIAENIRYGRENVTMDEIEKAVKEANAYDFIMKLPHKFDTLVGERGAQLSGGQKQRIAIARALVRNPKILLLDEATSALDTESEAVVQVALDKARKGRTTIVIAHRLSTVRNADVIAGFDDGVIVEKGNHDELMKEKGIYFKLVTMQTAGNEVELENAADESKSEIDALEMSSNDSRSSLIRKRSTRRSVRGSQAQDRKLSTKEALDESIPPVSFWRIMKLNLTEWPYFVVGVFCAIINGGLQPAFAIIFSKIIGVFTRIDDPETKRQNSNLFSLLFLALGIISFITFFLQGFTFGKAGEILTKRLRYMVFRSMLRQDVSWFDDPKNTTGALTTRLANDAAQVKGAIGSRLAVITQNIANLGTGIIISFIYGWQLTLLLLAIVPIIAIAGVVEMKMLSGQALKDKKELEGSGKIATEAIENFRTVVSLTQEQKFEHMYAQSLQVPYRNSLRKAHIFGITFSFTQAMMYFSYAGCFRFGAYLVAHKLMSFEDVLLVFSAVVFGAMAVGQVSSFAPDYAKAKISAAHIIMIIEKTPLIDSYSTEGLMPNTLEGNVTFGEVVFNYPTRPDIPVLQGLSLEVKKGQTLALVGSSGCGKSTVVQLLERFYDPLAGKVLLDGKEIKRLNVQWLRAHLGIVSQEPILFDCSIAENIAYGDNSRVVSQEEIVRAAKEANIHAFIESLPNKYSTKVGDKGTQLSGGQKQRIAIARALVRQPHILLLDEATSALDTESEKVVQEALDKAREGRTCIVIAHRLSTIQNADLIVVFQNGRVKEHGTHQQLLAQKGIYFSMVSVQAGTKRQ

## Cn1ncc2c(-c3ccc(F)cc3)cc(NNC(=O)Nc3cc(Cl)nc(Cl)c3)nc21
[1]
  C0 at 24 h: 4970 ng/mL
[2]
  MRT inf: 8.3 h
SW620/5-FU [3]
  inhibition in vivo at 7.5 mg/kg: 43.2%
SW620/5-FU [4]
  inhibition in vivo at 30 mg/kg: 62.1%
Mus musculus [5]
  Activity: Dde
Mus musculus [6]
  Activity: Active
[7]
  CL: 1.5 mL/min/kg
SW620/5-FU [8]
  Activity: 12.34%
Mus musculus [9]
  Activity: Active
Mus musculus [10]
  Activity: Active
[11]
  MRT last at 24 h: 7.9 h
SW620/5-FU [12]
  Activity: 8.68%
[13]
  Activity: Non-Toxic
HCT-116 [14]
  Activity: Dde
SW620/5-FU [15]
  Activity: Tde
[16]
  MRT last at 24 h: 7.6 h
NCM460 [17]
  Activity: Toxic
[18]
  clearance: 1.5 mL/min/kg
[19]
  Activity: 25%
[20]
  Vd: 1.8 L/kg
[21]
  half-life: 6 h
NCM460 [22]
  Activity: Toxic
[23]
  AUC(0-t) at 24 h: 10100 ng·h/mL
[24]
  AUC(0-inf): 11200 ng·h/mL
[25]
  C0 at 24 h: 4040 ng/mL
HCT-116 [26]
  EC50: 8.21 µM
SW620/5-FU [27]
  inhibition in vivo at 7.5 mg/kg: 14.7%
[28]
  fold change (FC): 1.4
SW620/5-FU [29]
  EC50: 9.15 µM
[30]
  MRT inf: 8.5 h
[31]
  Vd(app): 2 L/kg
SW620/5-FU [32]
  Activity: 51.72%
SW620/5-FU [33]
  inhibition in vivo at 15 mg/kg: 28.5%
[34]
  AUC(0-inf): 11700 ng·h/mL
[35]
  AUC(0-t) at 24 h: 10300 ng·h/mL
